Source: patent US20230322776A1, “NEW ARYL-PYRIDO-PYRIMIDIN-ONE DERIVATIVES” (Hoffmann-La Roche Inc., priority 2020, published 2023)
pEC50, pIC50, pKd: −log10 of the molar value.

Tests used:
BRAF V660E = BRAF V660E (Homo sapiens, UniProt P15056, V600E); assay: KD BRAF V660E (Table 1; no method described); assay type: binding
[1] = system: A375 cells (V600E mutated BRAF), ERK phospho-T202/Y204; assay: HTRF assay for P-ERK determination in A375 cells (BRAF inhibition); assay type: cell-based; conditions: Homo sapiens, A-375, 1 hour drug incubation, DMSO = 100%, 10 μM Dabrafenib = 0%, top concentration 10 μM, read-out: P-ERK_A375: IC50
Source text: (§1) A375 is a cellular cancer model expressing V600E mutated BRAF and HCT116 a cellular cancer model expressing WT BRAF. First generation BRAF inhibitors such as e.g. dabrafenib induce a paradox effect on tumour cells in that they inhibit the growth of V600E mutated BRAF cells (such as e.g. A375), while they activate growth in WT BRAF cells (such as e.g. HCT 116). ERK 1,2 phosphorylation (terminal member of the phosphorylation cascade of the MAPK pathway) is hereafter reported as main readout for the activation status of the MAPK pathway. DMEM no-phenol red medium supplemented with L-glutamine was purchased from (Thermo Fisher Scientific). Fetal bovine serum (FBS) was purchased from VWR. Advanced ERK phospho-T202/Y204 kit—10,000 tests was purchased from Cisbio cat #64AERPEH. A375 (catalog #CRL-1619) and HCT116 (catalog #CCL-247) cells were originally obtained from American type Culture Collection (ATCC) and banked by the Roche repository. 384-Well microplates ultized were purchased from Greiner Bio-One, 384-well, (With Lid, HiBase, Low volume cat 784-080).
(§2) HTRF Assay for P-ERK Determination in A375 or HCT116 Cells
(§3) Prior to the assay, A375 and HCT116 cell lines are maintained in DMEM no-phenol red medium supplemented with 10% fetal bovine serum (FBS). Following compound treatment, P-ERK levels are determined by measuring FRET fluorescence signal induced by selective binding of two antibodies provided in the mentioned kit (Cisbio cat #64AERPEH) on ERK protein when phosphorylated at Thr202/Tyr204. Briefly, 8000 cells/well in 12 μl media/well are plated in the 384-well plate and left overnight in the incubator (at 37° C. with 5% CO2-humidified atmosphere), the following day the plate is treated in duplicate with test compounds, dabrafenib and PLX8394 (the latter two as controls) at the following final drug concentrations: 10 μM, 3 μM, 1 μM, 0.3 μM, 0.1 μM, 0.03 μM, 0.01 μM, 0.003 μM and 0.001 μM. All wells are subjected to DMSO normalization and drug incubation occurs for 1 hour. Then, 4 μl of a 4× lysis buffer supplied with the kit are added to the wells, the plate is then centrifuged for 30 second (3000 rpm) and incubated on a plate shaker for 1 h at rt.
(§4) At the end of the incubation 4 μl/well of advanced P-ERK antibody solution (prepared according to manufacturer's instruction) followed by 4 μl/well of criptate P-ERK antibody solution (prepared according to manufacturer's instruction) (Cisbio cat #64AERPEH) are added to test wells.
(§5) In order to allow proper data normalization, control wells non drug treated reported in the following table are always included in each plate (according to manufacturer's instruction):
(§6) The plate is then centrifuged at 3000 rpm for 30 seconds, sealed to prevent evaporation and incubated overnight in the dark at room temperature. The plate is then analyzed and fluorescence emission value collected through a Pherastast FSX (BMG Labtech) apparatus at […]. The obtained fluorescence values are processed according to the formula Ratio=[…]*10000 then the average of the ratio on the blank is subtracted to all values.
Data are normalized in the case of A375 cells (BRAF inhibition) considering the average of the ratio (blank subtracted) derived by DMSO only treated cells as 100% and by considering the average of the ratio (blank subtracted) derived by 10 μM Dabrafenib treated cells as 0%. Mean of the normalized points are fitted with sigmoidal curve and IC50 values are determined.

[2] = system: HCT116 cells (WT BRAF), ERK phospho-T202/Y204; assay: HTRF assay for P-ERK determination in HCT116 cells (BRAF activation, paradox); assay type: cell-based; conditions: for pEC50: Homo sapiens, HCT-116, HCT116 cells, 1 hour drug incubation, activation relative to maximum Dabrafenib-mediated activation (100%), top concentration 10 μM, read-out: P-ERK_HCT-116: EC50—50PCT; for Fold Selectivity HCT-116 EC50-50/ A375: ratio of P-ERK HCT-116 EC50-50PCT to P-ERK A375 IC50
Source text: as §1, §2, §3, §4, §5, §6
Data are normalized in the case of HCT116 cells (BRAF activation) considering the average of the ratio (blank subtracted) derived by DMSO only treated cells as 0% and by considering the average of the ratio (blank subtracted) derived by Dabrafenib treated cells at the concentration which provides the highest signal as 100%. Individual points are fitted with either sigmoidal or bell shape curves, the percentage of activation compared to maximum Dabrafenib-mediated activation is determined.

BRAF = BRAF (Homo sapiens, UniProt P15056); assay: KD BRAF (Table 1; no method described); assay type: binding
BRAF, sequence (P15056 whole entry): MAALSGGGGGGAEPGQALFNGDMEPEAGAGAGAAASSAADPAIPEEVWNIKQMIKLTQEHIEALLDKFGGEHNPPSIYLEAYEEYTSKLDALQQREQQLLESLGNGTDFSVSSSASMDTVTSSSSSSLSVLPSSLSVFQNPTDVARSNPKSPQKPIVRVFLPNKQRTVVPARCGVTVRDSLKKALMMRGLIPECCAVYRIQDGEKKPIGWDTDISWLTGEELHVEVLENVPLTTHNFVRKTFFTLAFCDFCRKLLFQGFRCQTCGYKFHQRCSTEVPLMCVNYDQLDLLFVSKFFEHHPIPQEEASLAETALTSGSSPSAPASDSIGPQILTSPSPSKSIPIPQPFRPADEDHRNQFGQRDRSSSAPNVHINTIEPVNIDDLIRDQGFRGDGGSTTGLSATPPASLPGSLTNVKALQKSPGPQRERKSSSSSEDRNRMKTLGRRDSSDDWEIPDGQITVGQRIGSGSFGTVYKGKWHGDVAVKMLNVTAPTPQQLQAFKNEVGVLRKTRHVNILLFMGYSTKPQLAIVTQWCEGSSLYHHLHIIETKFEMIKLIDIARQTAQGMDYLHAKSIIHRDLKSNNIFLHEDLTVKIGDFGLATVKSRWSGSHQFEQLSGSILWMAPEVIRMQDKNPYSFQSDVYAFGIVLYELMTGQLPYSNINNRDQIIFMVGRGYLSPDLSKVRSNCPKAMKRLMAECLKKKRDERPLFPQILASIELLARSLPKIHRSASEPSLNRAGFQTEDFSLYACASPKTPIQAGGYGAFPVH

BRAF V660E, sequence (P15056 2-766 V600E): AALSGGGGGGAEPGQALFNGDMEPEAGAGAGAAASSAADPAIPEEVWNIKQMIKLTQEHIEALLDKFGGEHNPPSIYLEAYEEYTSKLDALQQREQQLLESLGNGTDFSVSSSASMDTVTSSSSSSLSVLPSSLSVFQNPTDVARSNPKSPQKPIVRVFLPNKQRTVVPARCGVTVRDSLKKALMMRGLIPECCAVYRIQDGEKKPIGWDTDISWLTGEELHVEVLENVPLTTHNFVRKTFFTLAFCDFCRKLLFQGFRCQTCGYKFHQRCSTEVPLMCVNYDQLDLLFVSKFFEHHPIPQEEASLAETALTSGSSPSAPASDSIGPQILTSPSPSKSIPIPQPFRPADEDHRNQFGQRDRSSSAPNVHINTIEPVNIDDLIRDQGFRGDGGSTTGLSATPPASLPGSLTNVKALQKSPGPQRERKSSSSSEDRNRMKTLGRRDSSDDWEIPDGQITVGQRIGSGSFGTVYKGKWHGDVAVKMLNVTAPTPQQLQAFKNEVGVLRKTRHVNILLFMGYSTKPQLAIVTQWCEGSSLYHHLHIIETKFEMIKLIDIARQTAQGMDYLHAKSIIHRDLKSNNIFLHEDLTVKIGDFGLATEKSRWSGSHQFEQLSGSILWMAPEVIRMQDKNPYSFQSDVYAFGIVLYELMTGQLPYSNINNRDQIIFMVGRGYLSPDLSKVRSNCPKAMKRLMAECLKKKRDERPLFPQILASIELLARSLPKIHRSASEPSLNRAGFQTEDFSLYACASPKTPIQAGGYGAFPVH

SMILES	pKd (BRAF V660E)	pIC50 [1]	pEC50 [2]	Fold Selectivity HCT-116 EC50-50/ A375 [2]	pKd (BRAF)
CCN(C)S(=O)(=O)Nc1ccc(F)c(-c2cc3cnc(NCCOCCOCCO)nc3n(C)c2=O)c1F [Example 9, 6-[3-[[ethyl(methyl)sulfamoyl]amino]-2,6-difluorophenyl]-2-[2-[2-(2-hydroxyethoxy)ethoxy]ethylamino]-8-methyl-7-oxopyrido[2,3-d]pyrimidine]	6.38	6.82	≤ 5.00	>65.4	6.87
Cn1c(=O)c(-c2c(F)ccc(NS(=O)(=O)N3CC[C@@H](F)C3)c2F)cc2cnc(NCC3CC3)nc21 [Example 10, (3R)-N-[3-[2-(cyclopropylmethylamino)-8-methyl-7-oxopyrido[2,3-d]pyrimidin-6-yl]-2,4-difluorophenyl]-3-fluoropyrrolidine-1-sulfonamide]	7.43	8.00	6.19	65.1	7.72
CCN(C)S(=O)(=O)Nc1ccc(F)c(-c2cc3cnc(NCC4CC4)nc3n(C)c2=O)c1F [Example 11, 2-(cyclopropylmethylamino)-6-[3-[[ethyl(methyl)sulfamoyl]amino]-2,6-difluorophenyl]-8-methyl-7-oxopyrido[2,3-d]pyrimidine]	6.36	7.15	≤ 5.00	>140.9	6.80
CN(C1CC1)S(=O)(=O)Nc1ccc(F)c(-c2cc3cnc(NCC4CC4)nc3n(C)c2=O)c1F [Example 12, 2-(cyclopropylmethylamino)-6-[3-[[cyclopropyl(methyl)sulfamoyl]amino]-2,6-difluorophenyl]-8-methyl-7-oxopyrido[2,3-d]pyrimidine]	6.31	6.96	5.65	20.4	7.07
Cn1c(=O)c(-c2c(F)ccc(NS(=O)(=O)C3CCCC3)c2F)cc2cnc(NCCC3CCN(C(=O)OC(C)(C)C)CC3)nc21 [Example 13, tert-butyl 4-[2-[[6-[3-(cyclopentylsulfonylamino)-2,6-difluorophenyl]-8-methyl-7-oxopyrido[2,3-d]pyrimidin-2-yl]amino]ethyl]piperidine-1-carboxylate]	6.36	6.56	5.02	34.7	6.46
Cl.Cn1c(=O)c(-c2c(F)ccc(NS(=O)(=O)N3CC[C@@H](F)C3)c2F)cc2cnc(NCCC3CCNCC3)nc21 [Example 14, (3R)—N-[2,4-difluoro-3-[8-methyl-7-oxo-2-(2-piperidin-4-ylethylamino)pyrido[2,3-d]pyrimidin-6-yl]phenyl]-3-fluoropyrrolidine-1-sulfonamide hydrochloride]	6.97	6.10	≤ 5.00	12.7	7.42
Cl.Cn1c(=O)c(-c2c(F)ccc(NS(=O)(=O)N3CC[C@@H](F)C3)c2F)cc2cnc(NCCOCCN)nc21 [Example 15, (3R)-N-[3-[2-[2-(2-aminoethoxy)ethylamino]-8-methyl-7-oxopyrido[2,3-d]pyrimidin-6-yl]-2,4-difluorophenyl]-3-fluoropyrrolidine-1-sulfonamide hydrochloride]	6.71	6.21	≤ 5.00	16.2	7.09
CNCCCNc1ncc2cc(-c3c(F)ccc(NS(=O)(=O)N4CC[C@@H](F)C4)c3F)c(=O)n(C)c2n1.Cl [Example 16, (3R)-N-[2,4-difluoro-3-[8-methyl-2-[3-(methylamino)propylamino]-7-oxopyrido[2,3-d]pyrimidin-6-yl]phenyl]-3-fluoropyrrolidine-1-sulfonamide hydrochloride]	6.53	6.16	≤ 5.00	14.6	6.83

Further lines, results first:

pKd (BRAF V660E)	pIC50 [1]	pEC50 [2]	Fold Selectivity HCT-116 EC50-50/ A375 [2]	pKd (BRAF)	SMILES
6.41	5.90	5.12	6.0	6.78	CCN(C)S(=O)(=O)Nc1ccc(F)c(-c2cc3cnc(NCCCNC)nc3n(C)c2=O)c1F.Cl [Example 17, 6-[3-[[ethyl(methyl)sulfamoyl]amino]-2,6-difluorophenyl]-8-methyl-2-[3-(methylamino)propylamino]-7-oxopyrido[2,3-d]pyrimidine hydrochloride]
7.15	6.68	5.23	28.3	7.59	Cl.Cn1c(=O)c(-c2c(F)ccc(NS(=O)(=O)N3CC[C@@H](F)C3)c2F)cc2cnc(NCCCC3CCNCC3)nc21 [Example 18, (3R)-N-[2,4-difluoro-3-[8-methyl-7-oxo-2-(3-piperidin-4-ylpropylamino)pyrido[2,3-d]pyrimidin-6-yl]phenyl]-3-fluoropyrrolidine-1-sulfonamide hydrochloride]
7.22	5.14	≤ 5.00	1.4	7.42	Cl.Cn1c(=O)c(-c2c(F)ccc(NS(=O)(=O)N3CC[C@@H](F)C3)c2F)cc2cnc(NCCCC(=O)NC3CCNCC3)nc21 [Example 19, 4-[[6-[2,6-difluoro-3-[[(3R)-3-fluoropyrrolidin-1-yl]sulfonylamino]phenyl]-8-methyl-7-oxopyrido[2,3-d]pyrimidin-2-yl]amino]-N-piperidin-4-ylbutanamide hydrochloride]
7.57	7.44	5.78	44.9	7.99	CC(=O)N1CCC(CCNc2ncc3cc(-c4c(F)ccc(NS(=O)(=O)N5CC[C@@H](F)C5)c4F)c(=O)n(C)c3n2)CC1 [Example 20, (3R)—N-[3-[2-[2-(1-acetylpiperidin-4-yl)ethylamino]-8-methyl-7-oxopyrido[2,3-d]pyrimidin-6-yl]-2,4-difluorophenyl]-3-fluoropyrrolidine-1-sulfonamide]
6.96	7.06	≤ 5.00	>115.3	7.21	CC(=O)N1CCC(CNc2ncc3cc(-c4c(F)ccc(NS(=O)(=O)N5CC[C@@H](F)C5)c4F)c(=O)n(C)c3n2)CC1 [Example 21, (3R)-N-[3-[2-[(1-acetylpiperidin-4-yl)methylamino]-8-methyl-7-oxopyrido[2,3-d]pyrimidin-6-yl]-2,4-difluorophenyl]-3-fluoropyrrolidine-1-sulfonamide]
7.68	6.74	≤ 5.00	>54.4	8.15	CC(=O)N1CC(Nc2ncc3cc(-c4c(F)ccc(NS(=O)(=O)N5CC[C@@H](F)C5)c4F)c(=O)n(C)c3n2)C1 [Example 22, (3R)-N-[3-[2-[(1-acetylazetidin-3-yl)amino]-8-methyl-7-oxopyrido[2,3-d]pyrimidin-6-yl]-2,4-difluorophenyl]-3-fluoropyrrolidine-1-sulfonamide]
